In ChEMBL document CHEMBL4480415, “Design and synthesis of potent myostatin inhibitory cyclic peptides” (Bioorg Med Chem, 2019) one finds solubility data, which are given here for one compound.

Where a SMILES comes first, the peptide text is derived from it. Bridges are numbered along the chain shown (N, C = ends). The star is where a group is joined. Acetyl(2-naphthyloxy) = O=C(COc1ccc2ccccc2c1)*

This data set is described as follows: Aqueous solubility of compound. In kind it is physicochemical. Particulars: buffer.

Take `CC[C@H](C)[C@H](NC(=O)[C@H](CCCNC(=N)N)NC(=O)[C@H](CO)NC(=O)[C@H](Cc1ccc(O)cc1)NC(=O)[C@H](CCCNC(=N)N)NC(=O)[C@@H]1CSSC[C@H](NC(=O)COc2ccc3ccccc3c2)C(=O)N[C@@H](CCC(N)=O)C(=O)N[C@@H](CC(N)=O)C(=O)N1)C(=O)N[C@@H](CCC(=O)O)C(=O)N[C@@H](Cc1c[nH]c2ccccc12)C(=O)N[C@H](C(=O)N[C@@H](CCCCN)C(=O)N[C@H](C(=O)N[C@@H](CCC(N)=O)C(=O)N[C@H](C(=O)N[C@H](C(=O)N[C@@H](CO)C(=O)N[C@@H](CCCCN)C(=O)N[C@@H](CC(C)C)C(=O)N[C@@H](CCCNC(=N)N)C(=O)N[C@@H](CC(C)C)C(N)=O)[C@@H](C)CC)[C@@H](C)CC)[C@@H](C)CC)[C@@H](C)CC` ({Acetyl(2-naphthyloxy)}-CQNCRYSRIEWIKIQIISKLRL-NH2; disulfide 1-4): the solubility result is listed as “Insoluble”.
